Experiments:
[1] = tested on: ECHORC (Watergrass (Calif.)); test: Preemergence weed control under flooded paddy conditions; type: in vivo, Echinochloa oryzoides; details: rated 3-4 weeks after treatment
Summary of the method: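 Seeds or propagules sown in top 0.5 cm of silt loam soil, flooded 1.5 to 3 cm above surface throughout. Compound in 50/50 v/v aqueous/acetone pipetted into flood water at about 0.0313 to 0.500 kg/ha. Visual 0-9 rating versus control after three to four weeks in greenhouse.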

MOOVA (Monochoria) = test: as above; type: in vivo, Monochoria vaginalis; details: rated 3-4 weeks after treatment
Summary of the method: (§1)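 Using flooded silt loam (water 1.5 to 3 cm deep), seeds sown in the top 0.5 cm were exposed preemergence to compound pipetted into the flood at about 0.0313 to 0.500 kg/ha. Effects were scored 0-9 by eye three to four weeks later.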

CASOB (Sicklepod) = test: Postemergence herbicidal evaluation; type: in vivo, Cassia obtusifolia; details: postemergence
Summary of the method: (§2)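 Rate range approx. 0.0156–0.500 kg/ha. Foliar application at 40 psi to ~2-week seedlings; surfactant 0.5% TWEEN 20 in 50/50 acetone/water. Evaluation 4–5 wk post-treatment by 0–9 visual injury score, means of replicate tests.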

ORYSAT (Rice, Tebonnet) = test: Preemergence herbicidal evaluation; type: in vivo, Oryza sativa, (L.) Tebonnet; details: rate 0.2500 kg/ha; rated 4-5 weeks after treatment
Summary of the method: (§3)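 Seeds were planted in potting soil in cups, then sprayed preemergence with the test compound in aqueous acetone at about 0.0156 to 0.500 kg per hectare. Cups were kept under greenhouse conditions and visually rated 4–5 weeks after treatment on a 0–9 scale against an untreated control.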

[2] = tested on: SAGPY (Arrowhead (Pygmaea)); test: Postemergence weed control under flooded paddy conditions; type: in vivo, Sagittaria pygmaea; details: postemergence weeds, 3-4 weeks after treatment
Summary of the method: (§4)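 Containers holding 3–5 cm weeds and rice at 1.5–2.5 leaves are flooded to 1.5–3 cm above soil. Compound in 50/50 v/v aqueous/acetone is then added directly to the water, about 0.0313–0.500 kg/ha. Plants are kept in the greenhouse and rated 0–9 visually at 3–4 weeks.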

[3] = tested on: ECHORC (Watergrass (Calif.)); test: as above; type: in vivo, Echinochloa oryzoides; details: postemergence weeds, 3-4 weeks after treatment
Summary of the method: as §4

GALAP (Galium) [4] = test: Postemergence herbicidal evaluation; type: in vivo, Galium aparine; details: postemergence
Summary of the method: as §2

AMBEL (Ragweed, Common) = test: Postemergence herbicidal evaluation; type: in vivo, Ambrosia artemisifolia; details: postemergence
Summary of the method: as §2

[5] = tested on: TRZAWR (Wheat, Winter, cv Riband); test: Postemergence herbicidal evaluation; type: in vivo, Triticum aestivum; details: postemergence
Summary of the method: as §2

[6] = tested on: GLXMAW (Soybean, Williams); test: Postemergence herbicidal evaluation; type: in vivo, Glycine max, (L.) Merr. cv Williams; details: postemergence
Summary of the method: as §2

SETVI (Foxtail, Green) = test: Preemergence herbicidal evaluation; type: in vivo, Setaria viridis; details: rate 0.2500 kg/ha; rated 4-5 weeks after treatment
Summary of the method: as §3

[7] = tested on: SAGPY (Arrowhead (Pygmaea)); test: Preemergence weed control under flooded paddy conditions; type: in vivo, Sagittaria pygmaea; details: rated 3-4 weeks after treatment
Summary of the method: as §1

GALAP (Galium) [8] = test: Preemergence herbicidal evaluation; type: in vivo, Galium aparine; details: rate 0.2500 kg/ha; rated 4-5 weeks after treatment
Summary of the method: as §3

CYPSE (Flatsedge) = test: Preemergence weed control under flooded paddy conditions; type: in vivo, Cyperus serotinus; details: rated 3-4 weeks after treatment
Summary of the method: as §1

CCOC(=O)CN1C(=O)C(=Cc2ccc(F)cc2)SC1=Nc1cc(-n2c(=O)cc(C(F)(F)F)n(C)c2=O)c(F)cc1Cl [Compound 21, Ethyl 2-{{2-chloro-5-[3,6-dihydro-3-methyl-2,6-dioxo-4-(trifluoromethyl)-1(2H)-pyrimidinyl]-4-fluorophenyl}imino}-5-(p-fluorobenzylidene)-4-oxo-3-thiazolidineacetate]
3.5: TRZAWR herbicidal rating ([5]; rate 0.0315 kg/ha) | TRZAWR herbicidal rating ([5]; rate 0.0630 kg/ha)
6.0: AMBEL herbicidal rating (AMBEL (Ragweed, Common); rate 0.0630 kg/ha)
2.0: Herbicidal rating ECHORC ([1]; 0.1160 kg/ha) | Herbicidal rating ECHORC ([3]; rate 0.1160 kg/ha) | GALAP herbicidal rating (GALAP (Galium) [4]; rate 0.0158 kg/ha) | GALAP herbicidal rating (GALAP (Galium) [4]; rate 0.0315 kg/ha) | GLXMAW herbicidal rating ([6]; rate 0.0158 kg/ha)
5.0: Herbicidal rating ECHORC ([1]; 0.4630 kg/ha) | Herbicidal rating ECHORC ([3]; rate 0.4630 kg/ha)
4.0: Herbicidal rating ECHORC ([1]; 0.2310 kg/ha) | Herbicidal rating ECHORC ([3]; rate 0.2310 kg/ha) | GALAP herbicidal rating (GALAP (Galium) [4]; rate 0.0630 kg/ha) | AMBEL herbicidal rating (AMBEL (Ragweed, Common); rate 0.0158 kg/ha) | AMBEL herbicidal rating (AMBEL (Ragweed, Common); rate 0.0315 kg/ha)
4.5: GLXMAW herbicidal rating ([6]; rate 0.0630 kg/ha)
2.5: TRZAWR herbicidal rating ([5]; rate 0.0158 kg/ha) | GLXMAW herbicidal rating ([6]; rate 0.0315 kg/ha)
0.0: Herbicidal rating MOOVA (MOOVA (Monochoria); 0.1160 kg/ha) | Herbicidal rating MOOVA (MOOVA (Monochoria); 0.2310 kg/ha) | Herbicidal rating MOOVA (MOOVA (Monochoria); 0.4630 kg/ha) | CASOB herbicidal rating (CASOB (Sicklepod); rate 0.0158 kg/ha) | CASOB herbicidal rating (CASOB (Sicklepod); rate 0.0315 kg/ha) | CASOB herbicidal rating (CASOB (Sicklepod); rate 0.0630 kg/ha) | ORYSAT preemergence herbicidal rating (ORYSAT (Rice, Tebonnet)) | Herbicidal rating SAGPY ([2]; rate 0.1160 kg/ha) | Herbicidal rating SAGPY ([2]; rate 0.2310 kg/ha) | Herbicidal rating SAGPY ([2]; rate 0.4630 kg/ha) | SETVI preemergence herbicidal rating (SETVI (Foxtail, Green)) | Herbicidal rating SAGPY ([7]; 0.1160 kg/ha) | Herbicidal rating SAGPY ([7]; 0.2310 kg/ha) | Herbicidal rating SAGPY ([7]; 0.4630 kg/ha) | GALAP preemergence herbicidal rating (GALAP (Galium) [8]) | Herbicidal rating CYPSE (CYPSE (Flatsedge); 0.1160 kg/ha) | Herbicidal rating CYPSE (CYPSE (Flatsedge); 0.2310 kg/ha) | Herbicidal rating CYPSE (CYPSE (Flatsedge); 0.4630 kg/ha)
